Where a name gives a salt, the structure may show the parent alone. Read-outs that look alike come from different tables or passages of the source.
Key:
[1] = system: Trypanosoma brucei rhodesiense; assay: In vitro anti-protozoan activity against T. b. r.; assay type: cell-based; details: for IC50: read-out: T.b.r. IC50; for in vitro activity (in words): against T. b. r. and P. f. (Table 1)
Description: The DNA binding studies and both the in vitro and in vivo antiprotozoan studies were performed as described by Ismail. M. A., et al., J. Med. Chem., 46, 4761-4769 (2003), which is incorporated herein by reference in its entirety. […]

[2] = system: T. b. r. (STIB900 acute infection); assay: In vivo anti-trypanosomal activity in the STIB900 mouse model; details: for in vivo effectiveness on oral dosage (in words): STIB900 model; for Survival: average days of survival
Description: (§1) The DNA binding studies and both the in vitro and in vivo antiprotozoan studies were performed as described by Ismail. M. A., et al., J. Med. Chem., 46, 4761-4769 (2003), which is incorporated herein by reference in its entirety.
In this model five of the diamidines (8a, 8b, 7, 14b, 14a) give 4/4 cures and two, 13a and 14c, give 3/4 cures on intraperitoneal dosage. […] No attempts were made to optimize the formulation. […] One of ordinary skill in the art would appreciate that optimization of the formulation could improve the oral bioavailability of the prodrug.

Plasmodium falciparum = assay: In vitro anti-protozoan activity against P. f.; assay type: cell-based; details: concentration that gives 50% growth inhibition, average of duplicate determinations, K = 1,000
Description: as §1

Poly-(dA.dT)2 = assay: DNA binding studies (ΔTm); details: DNA affinity
Description: as §1
Table 1 contains the results from the DNA binding studies for the new diamidines and the in vitro results for the compounds tested against T. b. r. and P. f. […] As a representative example of this class of compounds, compound 12 was evaluated and gave a ΔTm value of only 0.3.

[3] = Trypanosoma brucei, RHODESIENSE, concentration that gives 50% growth inhibition, average of duplicate determinations, K = 1,000
[4] = Mus musculus, 1440 h, po, 100 mg/kg, number of mice that survive and are parasite free for 60 days, read-out: Cures (converted)
[5] = Mus musculus, 1440 h, ip, 20 mg/kg, number of mice that survive and are parasite free for 60 days, read-out: Cures (converted)
[6] = Mus musculus, 1440 h, po, 75 mg/kg, number of mice that survive and are parasite free for 60 days, read-out: Cures
[7] = concentration that gives 50% growth inhibition, average of duplicate determinations, K = 1,000

SMILES	IC50 [1, 3] [nM]	IC50 (Plasmodium falciparum; Plasmodium falciparum) [nM]	ΔTm Poly-(dA.dT)2 (Poly-(dA.dT)2) [°C]	responders at 20 mg/kg [2, 5] [%]	Survival ([2]; ip, 20 mg/kg) [days]	further results
N=C(N)c1ccc(-c2cccc(-c3cn4c(n3)CCC(C(=N)N)C4)c2)cc1 (centres unmarked) (as salt: salt) [Compound 13b, 2-(4′-Amidinobiphenyl-3-yl)-5,6,7,8-tetrahydro-imidazo[1,2-a]pyridine-6-carboxamidine]	–	–	–	–	–	melting point: 236 to 238 °C
N=C(NO)c1ccc(-c2ccc(-c3cn4cc(C(=N)NO)ccc4n3)o2)cc1 [Compound 5a, N-Hydroxy-2-{5-[4-(N-hydroxyamidino)-phenyl]-furan-2-yl}-imidazo[1,2-a]pyridine-6-carboxamidine]	2200	1600	–	–	–	in vitro activity (in words) [1]: essentially no in vitro activity; responders at 50 mg/kg ([2]; Mus musculus, 1440 h, po, 50 mg/kg, number of mice that survive and are parasite free for 60 days, read-out: Cures (converted)): 25%; in vivo effectiveness on oral dosage (in words) [2]: did not show high in vivo effectiveness; Survival ([2]; po, 50 mg/kg): >19.5 days
CONC(=N)c1ccc(-c2ccc(-c3cn4cc(C(=N)NOC)ccc4n3)o2)cc1 [Compound 6, N-Methoxy-2-{5-[4-(N-methoxyamidino)-phenyl]-furan-2-yl}-imidazo[1,2-a]pyridine-6-carboxamidine]	3000	2800	–	–	–	in vitro activity (in words) [1]: essentially no in vitro activity; responders at 100 mg/kg [2, 4]: 50%; in vivo effectiveness on oral dosage (in words) [2]: did not show high in vivo effectiveness; Survival ([2]; po, 100 mg/kg): >39.5 days
N=C(N)c1ccc(-c2ccc(-c3cn4c(n3)CCC(C(=N)N)C4)o2)cc1 (centres unmarked) [Compound 7, 2-[5-(4-Amidinophenyl)-furan-2-yl]-5,6,7,8-tetrahydro-imidazo[1,2-a]pyridine-6-carboxamidine]	52	1200	15.6	100	>60	responders at 5 mg/kg ([2]; Mus musculus, 1440 h, ip, 5 mg/kg, number of mice that survive and are parasite free for 60 days, read-out: Cures (converted)): 50%; Survival ([2]; ip, 5 mg/kg): >51 days
N=C(N)c1ccc(-c2ccc(-c3cn4cc(C(=N)N)ccc4n3)o2)cc1 [Compound 8a, 2-[5-(4-Amidinophenyl)-furan-2-yl]-imidazo[1,2-a]pyridine-6-carboxamidine]	63	14	26.2	100	>60	–
Cc1cc(C(=N)N)cn2cc(-c3ccc(-c4ccc(C(=N)N)cc4)o3)nc12 [Compound 8b, 2-[5-(4-Amidinophenyl)-furan-2-yl]-8-methyl-imidazo[1,2-a]pyridine-6-carboxamidine]	6	88	> 27	100	>60	–
N=C(NO)c1ccc(-c2ccc(-c3cn4cc(C(=N)NO)ccc4n3)cc2)cc1 [Compound 11a, N-Hydroxy-2-[4′-(N-hydroxyamidino)-biphenyl-4-yl]-imidazo[1,2-a]pyridine-6-carboxamidine]	> 166000	521	–	–	–	in vitro activity (in words) [1]: essentially no in vitro activity; responders at 75 mg/kg [2, 6]: 0%; in vivo effectiveness on oral dosage (in words) [2]: did not show high in vivo effectiveness; Survival ([2]; po, 75 mg/kg): 28 days
N=C(NO)c1ccc(-c2cccc(-c3cn4cc(C(=N)NO)ccc4n3)c2)cc1 [Compound 11b, N-Hydroxy-2-[4′-(N-hydroxyamidino)-biphenyl-3-yl]-imidazo[1,2-a]pyridine-6-carboxamidine]	–	–	–	–	–	melting point: 252 to 254 °C
Cc1cc(C(=N)NO)cn2cc(-c3cccc(-c4ccc(C(=N)NO)cc4)c3)nc12 [Compound 11c, N-Hydroxy-2-[4′-(N-hydroxyamidino)-biphenyl-3-yl]-8-methyl-imidazo[1,2-a]pyridine-6-carboxamidine]	–	–	–	–	–	melting point: 193 to 195 °C
CONC(=N)c1ccc(-c2ccc(-c3cn4cc(C(=N)NOC)ccc4n3)cc2)cc1 [Compound 12, N-Methoxy-2-[4′-(N-methoxyamidino)-biphenyl-4-yl]-imidazo[1,2-a]pyridine-6-carboxamidine]	5300	395	0.3	–	–	in vitro activity (in words) [1]: essentially no in vitro activity; responders at 75 mg/kg [2, 6]: 0%; in vivo effectiveness on oral dosage (in words) [2]: did not show high in vivo effectiveness; Survival ([2]; po, 75 mg/kg): 20 days
N=C(N)c1ccc(-c2ccc(-c3cn4c(n3)CCC(C(=N)N)C4)cc2)cc1 (centres unmarked) [Compound 13a, 2-(4′-Amidinobiphenyl-4-yl)-5,6,7,8-tetrahydro-imidazo[1,2-a]pyridine-6-carboxamidine]	116	14	21.3	–	–	responders at 10 mg/kg ([2]; Mus musculus, 1440 h, ip, 10 mg/kg, number of mice that survive and are parasite free for 60 days, read-out: Cures (converted)): 75%; Survival ([2]; ip, 10 mg/kg): >51.5 days
N=C(N)c1ccc(-c2cccc(-c3cn4c(n3)CCC(C(=N)N)C4)c2)cc1 (centres unmarked) [Compound 13b, 2-(4′-Amidinobiphenyl-3-yl)-5,6,7,8-tetrahydro-imidazo[1,2-a]pyridine-6-carboxamidine]	226	86	19.1	–	–	–
N=C(N)c1ccc(-c2ccc(-c3cn4cc(C(=N)N)ccc4n3)cc2)cc1 [Compound 14a, 2-(4′-Amidinobiphenyl-4-yl)-imidazo[1,2-a]pyridine-6-carboxamidine]	1	43	24.2	100	>60	–
N=C(N)c1ccc(-c2cccc(-c3cn4cc(C(=N)N)ccc4n3)c2)cc1 [Compound 14b, 2-(4′-Amidinobiphenyl-3-yl)-imidazo[1,2-a]pyridine-6-carboxamidine]	22	107	> 27	100	>60	–
Cc1cc(C(=N)N)cn2cc(-c3cccc(-c4ccc(C(=N)N)cc4)c3)nc12 [Compound 14c, 2-(4′-Amidinobiphenyl-3-yl)-8-methyl-imidazo[1,2-a]pyridine-6-carboxamidine]	49	86	> 27	75	>50	–
N=C(N)c1ccc(-c2cn3c(n2)CCC(c2ccc(C(=N)N)cc2)C3)cc1 (centres unmarked) [Compound 18]	–	–	–	–	–	IC50 [1, 7]: 14 nM; IC50 (Plasmodium falciparum): 85 nM
N=C(N)c1ccc(-c2ccc3nc(-c4ccc(C(=N)N)cc4)cn3c2)cc1 [Compound 19]	–	–	–	–	–	IC50 [1, 7]: 7 nM; IC50 (Plasmodium falciparum): 92 nM
CONC(=N)c1ccc(-c2ccc(-c3ccc(C(=N)NOC)cc3)o2)cc1 [Compound IIIa, 2,5-Bis[4-(methoxyamidino)phenyl]furan, reference compound]	4.5	15.5	25	–	–	responders at 100 mg/kg [2, 4]: 100%; Survival ([2]; po, 100 mg/kg): >60 days
N=C(N)c1ccc(-c2ccc(-c3ccc(C(=N)N)cc3)o2)cc1 [Furamidine(IIa), 2,5-Bis(4-amidinophenyl)furan, reference compound]	–	–	–	–	52.5	IC50 ([1]; Trypanosoma brucei, RHODESIENSE): 14600 nM; responders at 20 mg/kg ([2]; Mus musculus, ip, 1440 h, read-out: Cures): 0%
N=C(N)c1ccc(OCCCCCOc2ccc(C(=N)N)cc2)cc1 [Pentamidine(I), Pentamidine, reference compound]	–	–	12	0	40.8	–
